# Data reported in ChEMBL document CHEMBL4004849, “Tetrazolylmethyl quinolines: Design, docking studies, synthesis, anticancer and antifungal analyses” (2017).
# Active and inactive are the calls of the source. The calls are words filed in the database; no cut-off is given here.
# How the values were obtained:
# Assay type in all cases: functional
# [1] = tested on: HL-60(TB); assay: Growth inhibition of human HL-60(TB) cells at 10^-5 M incubated for 48 hrs by sulforhodamine B assay relative to control
# [2] = tested on: K562; assay: Growth inhibition of human K562 cells at 10^-5 M incubated for 48 hrs by sulforhodamine B assay relative to control
# [3] = tested on: MOLT-4; assay: Growth inhibition of human MOLT4 cells at 10^-5 M incubated for 48 hrs by sulforhodamine B assay relative to control
# [4] = tested on: SR; assay: Growth inhibition of human SR cells at 10^-5 M incubated for 48 hrs by sulforhodamine B assay relative to control
# [5] = tested on: A549; assay: Growth inhibition of human A549/ATCC cells at 10^-5 M incubated for 48 hrs by sulforhodamine B assay relative to control
# [6] = tested on: EKVX; assay: Growth inhibition of human EKVX cells at 10^-5 M incubated for 48 hrs by sulforhodamine B assay relative to control
# [7] = tested on: NCI-H226; assay: Growth inhibition of human NCI-H226 cells at 10^-5 M incubated for 48 hrs by sulforhodamine B assay relative to control
# [8] = tested on: NCI-H23; assay: Growth inhibition of human NCI-H23 cells at 10^-5 M incubated for 48 hrs by sulforhodamine B assay relative to control
# [9] = tested on: NCI-H460; assay: Growth inhibition of human NCI-H460 cells at 10^-5 M incubated for 48 hrs by sulforhodamine B assay relative to control
# [10] = tested on: HCC 2998; assay: Growth inhibition of human HCC2998 cells at 10^-5 M incubated for 48 hrs by sulforhodamine B assay relative to control
# [11] = tested on: HCT-116; assay: Growth inhibition of human HCT116 cells at 10^-5 M incubated for 48 hrs by sulforhodamine B assay relative to control
# [12] = tested on: SW-620; assay: Growth inhibition of human SW620 cells at 10^-5 M incubated for 48 hrs by sulforhodamine B assay relative to control
# [13] = tested on: SF-268; assay: Growth inhibition of human SF268 cells at 10^-5 M incubated for 48 hrs by sulforhodamine B assay relative to control
# [14] = tested on: SF-295; assay: Growth inhibition of human SF295 cells at 10^-5 M incubated for 48 hrs by sulforhodamine B assay relative to control
# [15] = tested on: SF-539; assay: Growth inhibition of human SF539 cells at 10^-5 M incubated for 48 hrs by sulforhodamine B assay relative to control
# [16] = tested on: SNB-19; assay: Growth inhibition of human SNB19 cells at 10^-5 M incubated for 48 hrs by sulforhodamine B assay relative to control
# [17] = tested on: SNB-75; assay: Growth inhibition of human SNB75 cells at 10^-5 M incubated for 48 hrs by sulforhodamine B assay relative to control
# [18] = tested on: U-251; assay: Growth inhibition of human U251 cells at 10^-5 M incubated for 48 hrs by sulforhodamine B assay relative to control
# [19] = tested on: LOX IMVI; assay: Growth inhibition of human LOXIMVI cells at 10^-5 M incubated for 48 hrs by sulforhodamine B assay relative to control
# [20] = tested on: Malme-3M; assay: Growth inhibition of human MALME-3M cells at 10^-5 M incubated for 48 hrs by sulforhodamine B assay relative to control
# [21] = tested on: M14; assay: Growth inhibition of human M14 cells at 10^-5 M incubated for 48 hrs by sulforhodamine B assay relative to control
# [22] = tested on: MDA-MB-435; assay: Growth inhibition of human MDA-MB-435 cells at 10^-5 M incubated for 48 hrs by sulforhodamine B assay relative to control
# [23] = tested on: SK-MEL-28; assay: Growth inhibition of human SK-MEL-28 cells at 10^-5 M incubated for 48 hrs by sulforhodamine B assay relative to control
# [24] = tested on: UACC-257; assay: Growth inhibition of human UACC257 cells at 10^-5 M incubated for 48 hrs by sulforhodamine B assay relative to control
# [25] = tested on: UACC-62; assay: Growth inhibition of human UACC62 cells at 10^-5 M incubated for 48 hrs by sulforhodamine B assay relative to control
# [26] = tested on: IGROV-1; assay: Growth inhibition of human IGROV1 cells at 10^-5 M incubated for 48 hrs by sulforhodamine B assay relative to control
# [27] = tested on: OVCAR-3; assay: Growth inhibition of human OVCAR3 cells at 10^-5 M incubated for 48 hrs by sulforhodamine B assay relative to control
# [28] = tested on: OVCAR-5; assay: Growth inhibition of human OVCAR5 cells at 10^-5 M incubated for 48 hrs by sulforhodamine B assay relative to control
# [29] = tested on: OVCAR-8; assay: Growth inhibition of human OVCAR8 cells at 10^-5 M incubated for 48 hrs by sulforhodamine B assay relative to control
# [30] = tested on: SK-OV-3; assay: Growth inhibition of human SKOV3 cells at 10^-5 M incubated for 48 hrs by sulforhodamine B assay relative to control
# [31] = tested on: 786-0; assay: Growth inhibition of human 786-0 cells at 10^-5 M incubated for 48 hrs by sulforhodamine B assay relative to control
# [32] = tested on: ACHN; assay: Growth inhibition of human ACHN cells at 10^-5 M incubated for 48 hrs by sulforhodamine B assay relative to control
# [33] = tested on: CAKI-1; assay: Growth inhibition of human Caki1 cells at 10^-5 M incubated for 48 hrs by sulforhodamine B assay relative to control
# [34] = tested on: SN12C; assay: Growth inhibition of human SN12C cells at 10^-5 M incubated for 48 hrs by sulforhodamine B assay relative to control
# [35] = tested on: TK-10; assay: Growth inhibition of human TK10 cells at 10^-5 M incubated for 48 hrs by sulforhodamine B assay relative to control
# [36] = tested on: UO-31; assay: Growth inhibition of human UO31 cells at 10^-5 M incubated for 48 hrs by sulforhodamine B assay relative to control
# [37] = tested on: MDA-MB-231; assay: Growth inhibition of human MDA-MB-231/ATCC cells at 10^-5 M incubated for 48 hrs by sulforhodamine B assay relative to control
# [38] = tested on: Hs-578T; assay: Growth inhibition of human Hs 578T cells at 10^-5 M incubated for 48 hrs by sulforhodamine B assay relative to control
# [39] = tested on: BT-549; assay: Growth inhibition of human BT549 cells at 10^-5 M incubated for 48 hrs by sulforhodamine B assay relative to control
# [40] = tested on: T47D; assay: Growth inhibition of human T47D cells at 10^-5 M incubated for 48 hrs by sulforhodamine B assay relative to control
# [41] = tested on: MDA-MB-468; assay: Growth inhibition of human MDA-MB-468 cells at 10^-5 M incubated for 48 hrs by sulforhodamine B assay relative to control
# [42] = tested on: Candida albicans; assay: Antifungal activity against Candida albicans at 100 ug/ml by disc diffusion method; conditions: read-out: IZ
# [43] = tested on: Candida albicans; assay: Antifungal activity against Candida albicans after 24 hrs by serial dilution method
# [44] = tested on: Aspergillus fumigatus; assay: Antifungal activity against Aspergillus fumigatus at 100 ug/ml by disc diffusion method; conditions: read-out: IZ
# [45] = tested on: Aspergillus fumigatus; assay: Antifungal activity against Aspergillus fumigatus after 24 hrs by serial dilution method
compound,measurement,setting,value
Clc1nc2ccccc2cc1Cn1nnnc1CSc1ccccc1,growth inhibition (GI),[1],Active
same,growth inhibition (GI),[2],Active
same,growth inhibition (GI),[3],Active
same,growth inhibition (GI),[4],Active
same,growth inhibition (GI),[5],Active
same,growth inhibition (GI),[6],Active
same,growth inhibition (GI),[7],Active
same,growth inhibition (GI),[8],Active
same,growth inhibition (GI),[9],Active
same,growth inhibition (GI),[10],Active
same,growth inhibition (GI),[11],Active
same,growth inhibition (GI),[12],Active
same,growth inhibition (GI),[13],Active
same,growth inhibition (GI),[14],Active
same,growth inhibition (GI),[15],Active
same,growth inhibition (GI),[16],Active
same,growth inhibition (GI),[17],Active
same,growth inhibition (GI),[18],Active
same,growth inhibition (GI),[19],Active
same,growth inhibition (GI),[20],Active
same,growth inhibition (GI),[21],Active
same,growth inhibition (GI),[22],Active
same,growth inhibition (GI),[23],Active
same,growth inhibition (GI),[24],Active
same,growth inhibition (GI),[25],Active
same,growth inhibition (GI),[26],Active
same,growth inhibition (GI),[27],Active
same,growth inhibition (GI),[28],Active
same,growth inhibition (GI),[29],Active
same,growth inhibition (GI),[30],Active
same,growth inhibition (GI),[31],Active
same,growth inhibition (GI),[32],Active
same,growth inhibition (GI),[33],Active
same,growth inhibition (GI),[34],Active
same,growth inhibition (GI),[35],Active
same,growth inhibition (GI),[36],Active
same,growth inhibition (GI),[37],Active
same,growth inhibition (GI),[38],Active
same,growth inhibition (GI),[39],Active
same,growth inhibition (GI),[40],Active
same,growth inhibition (GI),[41],Active
same,zone of inhibition at 100 µg/mL,[42],12 mm
same,MIC,[43],10 µg/mL
same,zone of inhibition at 100 µg/mL,[44],16 mm
same,MIC,[45],25 µg/mL
Fc1ccc2nc(Cl)c(Cn3nnnc3Cc3ccccc3)cc2c1,growth inhibition (GI),[1],Active
same,growth inhibition (GI),[2],Active
same,growth inhibition (GI),[3],Active
same,growth inhibition (GI),[4],Active
same,growth inhibition (GI),[5],Active
same,growth inhibition (GI),[6],Active
same,growth inhibition (GI),[7],Active
same,growth inhibition (GI),[8],Active
same,growth inhibition (GI),[9],Active
same,growth inhibition (GI),[10],Active
same,growth inhibition (GI),[11],Active
same,growth inhibition (GI),[12],Active
same,growth inhibition (GI),[13],Active
same,growth inhibition (GI),[14],Active
same,growth inhibition (GI),[15],Active
same,growth inhibition (GI),[16],Active
same,growth inhibition (GI),[17],Active
same,growth inhibition (GI),[18],Active
same,growth inhibition (GI),[19],Active
same,growth inhibition (GI),[20],Active
same,growth inhibition (GI),[21],Active
same,growth inhibition (GI),[22],Active
same,growth inhibition (GI),[23],Active
same,growth inhibition (GI),[24],Active
same,growth inhibition (GI),[25],Active
same,growth inhibition (GI),[26],Active
same,growth inhibition (GI),[27],Active
same,growth inhibition (GI),[28],Active
same,growth inhibition (GI),[29],Active
same,growth inhibition (GI),[30],Active
same,growth inhibition (GI),[31],Active
same,growth inhibition (GI),[32],Active
same,growth inhibition (GI),[33],Active
same,growth inhibition (GI),[34],Active
same,growth inhibition (GI),[35],Active
same,growth inhibition (GI),[36],Active
same,growth inhibition (GI),[37],Active
same,growth inhibition (GI),[38],Active
same,growth inhibition (GI),[39],Active
same,growth inhibition (GI),[40],Active
same,growth inhibition (GI),[41],Active
same,zone of inhibition at 100 µg/mL,[42],13 mm
same,MIC,[43],25 µg/mL
same,zone of inhibition at 100 µg/mL,[44],10 mm
same,MIC,[45],10 µg/mL
Fc1ccc2nc(Cl)c(Cn3nnc(Cc4ccccc4)n3)cc2c1,growth inhibition (GI),[1],Active
same,growth inhibition (GI),[2],Active
same,growth inhibition (GI),[3],Active
same,growth inhibition (GI),[4],Active
same,growth inhibition (GI),[5],Active
same,growth inhibition (GI),[6],Active
same,growth inhibition (GI),[7],Active
same,growth inhibition (GI),[8],Active
same,growth inhibition (GI),[9],Active
same,growth inhibition (GI),[10],Active
same,growth inhibition (GI),[11],Active
same,growth inhibition (GI),[12],Active
same,growth inhibition (GI),[13],Active
same,growth inhibition (GI),[14],Active
same,growth inhibition (GI),[15],Active
same,growth inhibition (GI),[16],Active
same,growth inhibition (GI),[17],Active
same,growth inhibition (GI),[18],Active
same,growth inhibition (GI),[19],Active
same,growth inhibition (GI),[20],Active
same,growth inhibition (GI),[21],Active
same,growth inhibition (GI),[22],Active
same,growth inhibition (GI),[23],Active
same,growth inhibition (GI),[24],Active
same,growth inhibition (GI),[25],Active
same,growth inhibition (GI),[26],Active
same,growth inhibition (GI),[27],Active
same,growth inhibition (GI),[28],Active
same,growth inhibition (GI),[29],Active
same,growth inhibition (GI),[30],Active
same,growth inhibition (GI),[31],Active
same,growth inhibition (GI),[32],Active
same,growth inhibition (GI),[33],Active
same,growth inhibition (GI),[34],Active
same,growth inhibition (GI),[35],Active
same,growth inhibition (GI),[36],Active
same,growth inhibition (GI),[37],Active
same,growth inhibition (GI),[38],Active
same,growth inhibition (GI),[39],Active
same,growth inhibition (GI),[40],Active
same,growth inhibition (GI),[41],Active
same,zone of inhibition at 100 µg/mL,[42],12 mm
same,MIC,[43],25 µg/mL
same,zone of inhibition at 100 µg/mL,[44],15 mm
same,MIC,[45],25 µg/mL
